Reference: US20250101026A1, “Functionalized Allopurinol Derivatives for Treatment of Alzheimer’s Disease” (BOARD OF REGENTS OF THE UNIVERSITY OF NEBRASKA, priority 2022, published 2025)
Values joined by “and” are separate entries in the source; they are usually repeats but may differ in a detail not shown here. Equal entries are not always repeated. “Also recorded” adds a separate entry of the source.

Tests used:
[1] = system: SH-SY5Y cells; experiment: Aβ-induced toxicity in SH-SY5Y cells, MTS assay; type: cell-based, human; details: pretreated 24 hrs, then 25 μM Aβ 48 hrs
Protocol: (§1) Cell Culture. The cell line SH-SY5Y was cultured in DMEM/F12 media supplemented with 10% fetal bovine serum, 1% penicillin-streptomycin and maintained as monolayer cultures in a humidified atmosphere containing 5% CO2 at 37° C.^42 All cell lines were authenticated via short tandem repeat analysis and tested for mycoplasma using the a commercial mycoplasma detection kit as per the manufacturer's instructions, showing no contamination. Where indicated, cells were also cultured in DMEM/low glucose media. All compounds were diluted to 20 mM solution in DMSO and were serially diluted in cell culture media for cell treatments to a final concentration range of 0.01 to 100 μM, maintaining the final DMSO concentration at less than 1%. Positive control compound HupA was serially diluted in a similar fashion as the synthesized compounds.
(§2) Amyloid Preparation. The peptide Aβ1-42, referred to as “Aβ”, was obtained from a commercial source. The oligomers of Aβ were prepared using an established method,^43 Aβ peptide was resuspended in 0.5 mM NaOH at a concentration of […] and stored at −80° C. For use in cell cultures, the stock solution was incubated at 37° C. for 5-7 days. Before use, the peptide was diluted to 25 μM in DMEM/low glucose media.
(§3) Cell Viability Assays. The SH-SY5Y cells were plated at a density of 50,000 cells/well in 96-well plates and allowed to adapt overnight in a humidified atmosphere containing 5% CO2 at 37° C. The cells were pretreated (24 hours) with the test compound and exchanged to a serum-free DMEM/low glucose media, prior to incubation with 25 μM of Aβ. Cell viability was measured after 48 hours using commercial MTS assay or lactate dehydrogenase (LDH) cytotoxicity assay.
Employing human neuroblastoma SH-SY5Y ‘neuron-like’ cells, known to express ABAD,^20 experimental conditions are described herein that result in reproducible loss of 65% cell viability upon treatment with 25 μM Aβ after 48-hour incubation (FIG. 4A). Compound 1 (AG18051) and its analog 14b were screened for toxic effects in the SH-SY5Y cell lines.
HupA at 10 μM concentration provided 74% protection from Aβ-induced toxicity. […] Again, synthesized compound 14b at 1 μM, afforded greater protection than HupA at 10 μM concentration.

[2] = target: T1, ABAD (Homo sapiens, UniProt Q99714); experiment: Estradiol levels in SH-SY5Y cells treated with the substance alone; type: cell-based; design: To measure the effect of AG18051 alone in SH-SY5Y cell lines; endogenous in cells; host or cells: SH-SY5Y
T1 sequence (Q99714 1-261): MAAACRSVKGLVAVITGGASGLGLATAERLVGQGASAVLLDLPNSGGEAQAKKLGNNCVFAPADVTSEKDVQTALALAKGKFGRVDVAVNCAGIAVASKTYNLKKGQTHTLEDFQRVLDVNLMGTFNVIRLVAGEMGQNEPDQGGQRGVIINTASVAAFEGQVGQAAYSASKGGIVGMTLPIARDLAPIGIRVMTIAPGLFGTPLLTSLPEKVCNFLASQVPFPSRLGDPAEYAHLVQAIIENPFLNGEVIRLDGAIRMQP
Protocol: Estradiol ELISA assay. […] An estradiol assay was performed. In brief, the plate was loaded with samples, along with the estradiol tracer and the specific antiserum to estradiol and incubated for one hour at room temperature. After five washing steps, Ellman's Reagent was added, and the plate developed for 60 minutes with gentle shaking at room temperature. The calculated estradiol concentration was normalized to the total protein content of the samples.

[3] = system: SH-SY5Y cells; experiment: Mitochondrial Stress Test in Aβ-treated SH-SY5Y cells (extracellular flux analyzer); type: cell-based, human; details: for proton leak, ATP production and maximal respiration: restoration of mitochondrial function lost by Aβ: then 25 μM Aβ
Protocol: Mitochondrial Stress Test. […] After 48 hours, media was replaced with assay medium consisting of XF Base Medium supplemented with 10 mM glucose, 10 mM pyruvic acid, and 1 mM L-glutamine. Subsequently, the analysis of mitochondrial oxygen consumption rate (OCR) was performed in a flux analyzer. The OCR values were obtained both during baseline (prior to addition of any Mito Stress Test substances), and after the addition of […], 2 μM FCCP and 0.5 μM rotenone+0.5 μM antimycin A, respectively. Prior to analysis, data were corrected by withdrawing non-mitochondrial respiration (measured after the injection of rotenone and antimycin A) from all measured OCR values. After the experiment, cells were lysed using RIPA buffer and protease inhibitor cocktail, then proteins were quantified via BCA assay. Results were normalized to protein concentration of each well to its OCR value.

[4] = system: SH-SY5Y cells; experiment: Cell viability of SH-SY5Y cells with compound alone; type: cell-based, human; details: up to 100 μM
Protocol: as §1
as §3, with “assay. […]” for “assay.”

[5] = cited from earlier work
[6] = system: SH-SY5Y cells; experiment: Aβ-induced toxicity in SH-SY5Y cells, lactate dehydrogenase (LDH) release assay; type: cell-based, human; details: 1 μM, pretreated 24 hrs, then 25 μM Aβ 48 hrs
Protocol: as §1, §2
Cell Viability Assays. […] Cell viability was measured after 48 hours using commercial MTS assay or lactate dehydrogenase (LDH) cytotoxicity assay. […]

[7] = target: T2, Aβ-ABAD PPI (Homo sapiens, UniProt Q99714); experiment: Estradiol ELISA assay: rescue of Aβ-induced reduction of estradiol levels in SH-SY5Y cells; type: cell-based
T2 construct: wildtype human SH-SY5Y cell lines, which are known to express ABAD; endogenous in cells; host or cells: SH-SY5Y
T2 sequence (Q99714 2-261 limits assumed): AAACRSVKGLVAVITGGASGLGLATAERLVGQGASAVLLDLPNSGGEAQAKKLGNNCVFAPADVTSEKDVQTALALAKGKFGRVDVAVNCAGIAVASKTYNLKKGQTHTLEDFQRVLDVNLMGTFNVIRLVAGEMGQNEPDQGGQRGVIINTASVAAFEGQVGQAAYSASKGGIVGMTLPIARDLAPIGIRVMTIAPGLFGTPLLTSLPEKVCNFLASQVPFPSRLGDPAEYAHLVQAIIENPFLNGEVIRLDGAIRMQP
Protocol: as §1, §2
Estradiol ELISA assay. SH-SY5Y cells were treated with compounds (24 hours), followed by Aβ (72 hours) in a similar fashion to that employed in the cell viability assays, the cell culture medium was collected, and cells were lysed using RIPA buffer and protease inhibitor cocktail, then proteins were quantified via BCA assay. An estradiol assay was performed. In brief, the plate was loaded with samples, along with the estradiol tracer and the specific antiserum to estradiol and incubated for one hour at room temperature. After five washing steps, Ellman's Reagent was added, and the plate developed for 60 minutes with gentle shaking at room temperature. The calculated estradiol concentration was normalized to the total protein content of the samples.
Statistical Analyses. The IC50 values of each compound were acquired from a single experiment with each inhibitor concentration run in triplicate and the statistical significance was calculated using the Student t test, or a one-way or two-way ANOVA. A P value of <0.05 was considered statistically significant. IC50 values were calculated.
To determine the effect of Aβ on estradiol production, and ABAD's role in this process, wildtype human SH-SY5Y cell lines, which are known to express ABAD, were incubated for 72 hours with Aβ.^20 Estradiol levels in the cell lysate were measured with a commercial ELISA-based estradiol assay. […] To determine if AG18051 treatment affects Aβ-induced reduction of estradiol levels, 0.1 or 1 μM AG18051 was preincubated in SH-SY5Y cells for 24 hours prior to Aβ exposure. […] AG18051 at 1 μM protected SH-SY5Y cells from Aβ-induced reduction of estradiol production to a greater significance than HupA. This confirms literature reports that AG18051 is neuroprotective and that it exerts this effect by ameliorating Aβ-induced reduction of estradiol production by ABAD.^20, 23
This assay methodology allows direct screening of compound activity in the presence of Aβ and provides direct evidence of the ability of compounds to rescue Aβ-induced reduction of estradiol production by ABAD. To measure the effect of AG18051 alone in SH-SY5Y cell lines, a 0.01-100 μM dose-response range was tested, and their effect on estradiol levels (FIG. 2B). […] To evaluate the effect of the increase of AG18051 dose in maintaining estradiol levels reduced by Aβ, AG18051 was tested in increasing concentrations in the presence of Aβ (FIG. 2B).

[8] = target: T1, ABAD; details: at 10 μM concentration; cited from earlier work

SMILES	protection of cell viability (MTS assay) ([1]; 1 μM) [%]	effect on estradiol levels, compound alone ([2]; 0.01-100 μM dose-response range)	decrease in estradiol levels compared to control ([2]; compound alone at 100 μM) [%]	basal respiration: restored share of the cell respiration reduced by Aβ ([3]; 1 μM pretreatment 24 hrs, then 25 μM Aβ 48 hrs) [%]	proton leak, ATP production and maximal respiration: restoration of mitochondrial function lost by Aβ ([3]; 1 μM pretreatment)	toxicity to reduce cell viability [4]	solubility [5]	LDH release compared with Aβ treatment alone [6]	IC50 ([7]; compounds 24 hours then Aβ 72 hours, amelioration of Aβ-induced reduction of estradiol levels, read-out: IC50 (estradiol assay))	estradiol levels in the presence of Aβ ([7]; preincubated 24 hours prior to Aβ exposure, compared to Aβ-only control, listed as AG18051)	protection from Aβ-induced toxicity (MTS assay) ([1]; 10 μM) [%]	ABAD inhibition activity [8]	basal respiration: restored respiration levels ([3]; 10 μM pretreatment 24 hrs, then 25 μM Aβ 48 hrs) [%]	proton leak, ATP production and maximal respiration: restoration of mitochondrial function lost by Aβ ([3]; 10 μM pretreatment)
O=C(C(c1ccccc1)n1cnc2[nH]ncc2c1=S)N1CCCCCC1 (centres unmarked) [Compound 1, 1-(azepan-1-yl)-2-phenyl-2-(4-thioxo-1,4-dihydro-5H-pyrazolo[3,4-d]pyrimidin-5-yl)ethan-1-one, reference compound]	79	no significant reduction in estradiol levels	20	37	trend to restore	no toxicity	poor solubility	significantly reducing LDH release	1220 nM and 1200 nM	significantly maintained estradiol levels; also recorded: dose-dependent increase in estradiol levels	–	–	–	–
C/C=C1\[C@H]2C=C(C)C[C@]1(N)c1ccc(=O)[nH]c1C2 [Huperzine A]	–	–	–	–	–	–	–	–	–	–	74	possess ABAD inhibition activity	46	trend to restore
